According to the NIST ThermoML archive (doi:10.1021/je060271a):

Conditions: 283.15 K, Liquid, Vibrating tube method

CCCCCC(=O)OCC(COC(=O)CCCCC)(COC(=O)CCCCC)COC(=O)CCCCC [pentaerythritol tetrahexanoate]
Conditions | mass density [kg/m3]
17954 kPa | 1014.2
17972 kPa | 1014.2
17987 kPa | 1014.3
18002 kPa | 1014.3
18020 kPa | 1014.4
18035 kPa | 1014.3
18050 kPa | 1014.4
18068 kPa | 1014.4
18083 kPa | 1014.3
18098 kPa | 1014.3
18116 kPa | 1014.5
18131 kPa | 1014.3
18146 kPa | 1014.4
18161 kPa | 1014.3
18179 kPa | 1014.4
18195 kPa | 1014.4
18210 kPa | 1014.5
18228 kPa | 1014.4
18243 kPa | 1014.5
18259 kPa | 1014.6
18277 kPa | 1014.5
18292 kPa | 1014.4
18308 kPa | 1014.5
18326 kPa | 1014.5
18341 kPa | 1014.6
18356 kPa | 1014.6
18375 kPa | 1014.5
18391 kPa | 1014.5
18407 kPa | 1014.6
18425 kPa | 1014.6
18441 kPa | 1014.6
18457 kPa | 1014.6
18472 kPa | 1014.5
18491 kPa | 1014.6
18506 kPa | 1014.6
18522 kPa | 1014.6
18541 kPa | 1014.5
18557 kPa | 1014.7
18576 kPa | 1014.6
18592 kPa | 1014.6
18608 kPa | 1014.7
18624 kPa | 1014.6
18643 kPa | 1014.6
18659 kPa | 1014.7
18676 kPa | 1014.7
18695 kPa | 1014.7
18711 kPa | 1014.7
18727 kPa | 1014.7
18746 kPa | 1014.7
18763 kPa | 1014.8
18779 kPa | 1014.7
18796 kPa | 1014.7
18815 kPa | 1014.9
18832 kPa | 1014.7
18848 kPa | 1014.9
18868 kPa | 1014.8
18884 kPa | 1014.9
18901 kPa | 1014.7
18917 kPa | 1014.9
18937 kPa | 1014.7
18954 kPa | 1014.9
18970 kPa | 1014.9
18990 kPa | 1014.8
19005 kPa | 1014.9
19024 kPa | 1014.9
19040 kPa | 1014.9
19057 kPa | 1015
19075 kPa | 1014.8
19091 kPa | 1014.9
19107 kPa | 1014.8
19126 kPa | 1015
19142 kPa | 1015
19161 kPa | 1015
19177 kPa | 1014.9
19193 kPa | 1015
19212 kPa | 1014.9
19228 kPa | 1014.9
19245 kPa | 1015.1
19264 kPa | 1015
19281 kPa | 1015.1
19297 kPa | 1014.9
19313 kPa | 1014.9
19333 kPa | 1014.9
19350 kPa | 1015
19366 kPa | 1015
19382 kPa | 1015.1
19402 kPa | 1015
19418 kPa | 1015.2
19438 kPa | 1015.1
19455 kPa | 1015.2
19471 kPa | 1015.1
19488 kPa | 1015.1
19509 kPa | 1015.1
19525 kPa | 1015.1
19542 kPa | 1015.1
19559 kPa | 1015.2
19579 kPa | 1015.2
19596 kPa | 1015.1
19616 kPa | 1015.1
19633 kPa | 1015.2
19649 kPa | 1015.3
19666 kPa | 1015.2
19686 kPa | 1015.3
19703 kPa | 1015.3
19720 kPa | 1015.3
19741 kPa | 1015.4
19758 kPa | 1015.3
19778 kPa | 1015.2
19796 kPa | 1015.3
19813 kPa | 1015.3
19830 kPa | 1015.3
19851 kPa | 1015.3
19868 kPa | 1015.3
19885 kPa | 1015.3
19906 kPa | 1015.4
19922 kPa | 1015.4
19941 kPa | 1015.3
19957 kPa | 1015.4
19973 kPa | 1015.4
19989 kPa | 1015.4
20008 kPa | 1015.2
20024 kPa | 1015.4
20040 kPa | 1015.4
20059 kPa | 1015.4
20075 kPa | 1015.4
20094 kPa | 1015.4
20110 kPa | 1015.4
20126 kPa | 1015.5
20143 kPa | 1015.5
20162 kPa | 1015.5
20178 kPa | 1015.4
20194 kPa | 1015.6
20213 kPa | 1015.5
20228 kPa | 1015.5
20246 kPa | 1015.4
20262 kPa | 1015.5
20277 kPa | 1015.6
20293 kPa | 1015.5
20312 kPa | 1015.6
20328 kPa | 1015.6
20343 kPa | 1015.5
20362 kPa | 1015.6
20378 kPa | 1015.6
20395 kPa | 1015.7
20410 kPa | 1015.6
